Measurements: ChEMBL document CHEMBL4371100, “Antimicrobial Chrysophaentin Analogs Identified from Laboratory Cultures of the Marine Microalga Chrysophaeum taylorii” (2019)
Values after ≈ are worked out from the molar mass of the structure shown.

test system: Staphylococcus aureus; assay: Antibacterial activity against Staphylococcus aureus ATCC 29213 by CLSI method; type: functional

MIC [µg/mL]	SMILES
10 (≈ 20 µM)	Oc1cc(C/C=C(/Cl)Cc2c(Br)c(O)cc(O)c2Br)c(O)cc1Cl
40 (≈ 78.6 µM)	Oc1cc(C/C=C\Cc2c(Br)c(O)cc(O)c2Br)c(O)cc1Br
10 (≈ 15.5 µM)	Oc1cc(O)cc(C/C(Cl)=C\Cc2cc(O)c(-c3c(O)cc(C/C(Cl)=C\Cc4cc(O)c(Cl)cc4O)cc3O)cc2O)c1
40 (≈ 86.1 µM)	Oc1cc(C/C=C\Cc2c(Br)c(O)cc(O)c2Br)c(O)cc1Cl
